Where no end group is shown, it is not given here.
Columns and labels:
[1] = test system: untreated neurons; experiment: survival of untreated cerebral cortical neurons (protection from naturally occurring death); settings: for concentrations able to protect cells from naturally occurring death: cerebral cortical cultures of newborn rats, number of cells at 10^-12 M serves as control, Figs. 2-4
Description: (§1) • (a) Cerebral cortical cultures were prepared by a slight modification of the techniques described by Forsythe and Westbrook, (J. Physiol. Lond. 396:515 (1988)), in which cerebral cortex was used instead of hippocampus and newborn rats were utilized instead of E16 mice. […] Cerebral cortical cells were counted as above, however, only 40 fields per plate were counted comprising an area of 20 mm^2.
(§2) • (a) Cells were prepared as described in Example 5. […] One treatment was given at the beginning of a five day test period. Cell counts were performed on 100 fields, with a total area of 50 mm^2. Neurons were counted without knowledge of treatment.

[2] = test system: neurons treated with a VIP antagonist; experiment: survival of cerebral cortical neurons treated with a VIP antagonist
Description: as §1, §2

[3] = test system: neurons treated with fragment 25-35 of β-Amyloid peptide; experiment: survival of cerebral cortex neurons treated with fragment 25-35 of β-amyloid peptide; format: cell-based, rat; settings: 25 µM fragment alone; 5 days
Description: β-amyloid peptide is known to be involved in Alzheimer's disease and is a toxic substance to neurons grown in culture (Pike et al., J. of Neurosci., 13(4), 1676-1687 (1993)). Neurons from rat cerebral cortex, prepared as described above were treated with 25 µM of β-amyloid peptide fragment comprising amino acids in positions 25 to 35 mentioned in the above publication. The β-amyloid peptide fragment was dissolved in water and preincubated at 37°C for 48 h in 10% CO2. St-Nle^17-VIP (10 µl/1 ml medium) was added to the culture plates at varying concentrations together with the β-amyloid peptide fragment. The St-Nle^17-VIP was initially dissolved in DMSO to give a concentration of 10^-3 M and all further dilutions were performed in saline. Cells were then incubated for 5 days, stained with antibodies against neuron specific enolase and living neurons were counted as described above.

Question: Which “concentrations able to protect cells from naturally occurring death” value [1] does the source give for “St-H-S-D-G-I-F-T-D-S-Y-S-R-Y-R (stearyl-HSDGIFTDSYSRYR) [peptide 1]” here?
Answer: above 10^-8 M

Question: With “St-A-V-T-T-D-N-Y-T (stearyl-AVTTDNYT) [peptide 5]” as the substance, how does the “concentration of maximal activity (neuronal survival)” value ([1]; in absence of the VIP antagonist, five day test period, Fig. 5B) read?
Answer: 10^-8 M

Question: What about the “effect on neuronal survival” value ([2]; in the presence (Fig. 5A) and in the absence (Fig. 5B) of the VIP antagonist) of the same substance?
Answer: VIP agonist, stimulating neuronal survival

Question: What about the “concentration of maximal activity (neuronal survival)” value ([2]; in the presence of 10^-8 M VIP antagonist, five day test period, Fig. 5A) of the same substance?
Answer: 10^-10 M

Question: Which “number of living neurons” value [3] does the source give for “GSNKGAIIGLM [fragment 25-35 of β-amyloid peptide]” here?
Answer: 42 per 20 mm^2

Question: How did the “concentrations able to protect cells from naturally occurring death” value [1] turn out when “St-K-Q-M-A-V-K-K-Y-L-A-A-V-L (stearyl-KQMAVKKYLAAVL) [peptide 2]” was run?
Answer: above 10^-9 M

— EP0620008B1, “Use of vip, analogues and fragments thereof for the treatment of neurodegenerative diseases” (YEDA RESEARCH AND DEVELOPMENT COMPANY, LTD., priority 1993, dated 1999)
